Reference: patent US6114310A, “Efflux pump inhibitors” (priority 1998, dated 2000)

Tested on: Pseudomonas aeruginosa PAM1001
Assay: microbe, parasite or virus in culture
Format: cell-based
Method in brief: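 Checkerboard broth microdilution (NCCLS) with the efflux pump inhibitor and levofloxacin, each diluted along one axis of the plate, in Mueller Hinton Broth. Inoculum 5×10^5 CFU/ml from early-log culture; incubation 20 h at 35° C. Growth read at 650 nm and visually.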

[1] = Table 1, EPI Conc. μg/ml (number not given; column between 10 and 40 μg/ml)
[2] = Table 2, EPI Conc. μg/ml (number not given; column between 10 and 40 μg/ml)

β-(2-Thiaizolyl)alanyl-Nα -methylornithine 2-naphthylamide [Compound 30 (Table 1)]
Levofloxacin MIC Against P. aeruginosa PAM1001 in Presence of Efflux Pump Inhibitor (EPI), Minimum Inhibitory Concentration (Table 1, EPI Conc. 0 μg/ml): 4 µg/mL | Levofloxacin MIC Against P. aeruginosa PAM1001 in Presence of Efflux Pump Inhibitor (EPI), Minimum Inhibitory Concentration (Table 1, EPI Conc. 0.625 μg/ml): 4 µg/mL | Levofloxacin MIC Against P. aeruginosa PAM1001 in Presence of Efflux Pump Inhibitor (EPI), Minimum Inhibitory Concentration (Table 1, EPI Conc. 5 μg/ml): 1 µg/mL | Levofloxacin MIC Against P. aeruginosa PAM1001 in Presence of Efflux Pump Inhibitor (EPI), Minimum Inhibitory Concentration (Table 1, EPI Conc. 10 μg/ml): 0.25 µg/mL | Levofloxacin MIC Against P. aeruginosa PAM1001 in Presence of Efflux Pump Inhibitor (EPI), Minimum Inhibitory Concentration (Table 1, EPI Conc. 40 μg/ml): 0.25 µg/mL | Levofloxacin MIC Against P. aeruginosa PAM1001 in Presence of Efflux Pump Inhibitor (EPI), Minimum Inhibitory Concentration [1]: 0.25 µg/mL | Levofloxacin MIC Against P. aeruginosa PAM1001 in Presence of Efflux Pump Inhibitor (EPI), Minimum Inhibitory Concentration (Table 2, EPI Conc. 0 μg/ml): 4 µg/mL | Levofloxacin MIC Against P. aeruginosa PAM1001 in Presence of Efflux Pump Inhibitor (EPI), Minimum Inhibitory Concentration (Table 2, EPI Conc. 0.625 μg/ml): 4 µg/mL | Levofloxacin MIC Against P. aeruginosa PAM1001 in Presence of Efflux Pump Inhibitor (EPI), Minimum Inhibitory Concentration (Table 2, EPI Conc. 5 μg/ml): 2 µg/mL | Levofloxacin MIC Against P. aeruginosa PAM1001 in Presence of Efflux Pump Inhibitor (EPI), Minimum Inhibitory Concentration (Table 2, EPI Conc. 10 μg/ml): 1 µg/mL | Levofloxacin MIC Against P. aeruginosa PAM1001 in Presence of Efflux Pump Inhibitor (EPI), Minimum Inhibitory Concentration (Table 2, EPI Conc. 40 μg/ml): 0.25 µg/mL | Levofloxacin MIC Against P. aeruginosa PAM1001 in Presence of Efflux Pump Inhibitor (EPI), Minimum Inhibitory Concentration (Table 2, EPI Conc. […]): 4 µg/mL | Levofloxacin MIC Against P. aeruginosa PAM1001 in Presence of Efflux Pump Inhibitor (EPI), Minimum Inhibitory Concentration [2]: 0.50 µg/mL

4-(O-Methylcarboxyamido)phenylalanyl-Nα -methylornithine 2-naphthylamide [Compound 32 (Table 1)]
Levofloxacin MIC Against P. aeruginosa PAM1001 in Presence of Efflux Pump Inhibitor (EPI), Minimum Inhibitory Concentration (Table 1, EPI Conc. 0 μg/ml): 4 µg/mL | Levofloxacin MIC Against P. aeruginosa PAM1001 in Presence of Efflux Pump Inhibitor (EPI), Minimum Inhibitory Concentration (Table 1, EPI Conc. 0.625 μg/ml): 4 µg/mL | Levofloxacin MIC Against P. aeruginosa PAM1001 in Presence of Efflux Pump Inhibitor (EPI), Minimum Inhibitory Concentration (Table 1, EPI Conc. 5 μg/ml): 0.50 µg/mL | Levofloxacin MIC Against P. aeruginosa PAM1001 in Presence of Efflux Pump Inhibitor (EPI), Minimum Inhibitory Concentration (Table 1, EPI Conc. 10 μg/ml): 0.125 µg/mL | Levofloxacin MIC Against P. aeruginosa PAM1001 in Presence of Efflux Pump Inhibitor (EPI), Minimum Inhibitory Concentration (Table 1, EPI Conc. 40 μg/ml): 0.06 µg/mL | Levofloxacin MIC Against P. aeruginosa PAM1001 in Presence of Efflux Pump Inhibitor (EPI), Minimum Inhibitory Concentration [1]: 0.06 µg/mL | Levofloxacin MIC Against P. aeruginosa PAM1001 in Presence of Efflux Pump Inhibitor (EPI), Minimum Inhibitory Concentration (Table 2, EPI Conc. 0 μg/ml): 4 µg/mL | Levofloxacin MIC Against P. aeruginosa PAM1001 in Presence of Efflux Pump Inhibitor (EPI), Minimum Inhibitory Concentration (Table 2, EPI Conc. 0.625 μg/ml): 4 µg/mL | Levofloxacin MIC Against P. aeruginosa PAM1001 in Presence of Efflux Pump Inhibitor (EPI), Minimum Inhibitory Concentration (Table 2, EPI Conc. 5 μg/ml): 2 µg/mL | Levofloxacin MIC Against P. aeruginosa PAM1001 in Presence of Efflux Pump Inhibitor (EPI), Minimum Inhibitory Concentration (Table 2, EPI Conc. 10 μg/ml): 0.50 µg/mL | Levofloxacin MIC Against P. aeruginosa PAM1001 in Presence of Efflux Pump Inhibitor (EPI), Minimum Inhibitory Concentration (Table 2, EPI Conc. 40 μg/ml): 0.03 µg/mL | Levofloxacin MIC Against P. aeruginosa PAM1001 in Presence of Efflux Pump Inhibitor (EPI), Minimum Inhibitory Concentration (Table 2, EPI Conc. […]): 4 µg/mL | Levofloxacin MIC Against P. aeruginosa PAM1001 in Presence of Efflux Pump Inhibitor (EPI), Minimum Inhibitory Concentration [2]: 0.25 µg/mL
